Reference: PubChem BioAssay AID2060912 (Molecular Pharmacology Branch, DTP, NCI, 2025)

Test system: HUVEC/MSC spheroids viability
Test: Human HUVEC/MSC cell line growth inhibition [KRAS2];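 for viability, T/C: percent of DMSO vehicle control luminescence so 100% = untreated viability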
Conditions: for IC50: curve of first compound; for viability, T/C: stronger effect = lower value; active = viability on the fitted dose curve at most 10% of control; inactive = the rest
In short: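 The concentration series started at or near clinical Cmax (10 microM if not known) and fell in half-log increments, alone or in combination. Cells were stromal-only spheroids of pooled-donor HUVEC and hMSC (passage </=5), with different drug plates and layout from the tumor spheroid screens.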

[1] = second compound 0.0316 µM, first compound 0.0316 µM
[2] = second compound 0.0316 µM, first compound 0.1 µM
[3] = second compound 0.0316 µM, first compound 0.316 µM
[4] = second compound 0.0316 µM, first compound 1 µM
[5] = second compound 0.0316 µM, first compound 3.16 µM
[6] = second compound 0.0316 µM, first compound 10 µM
[7] = second compound 0.1 µM, first compound 0.0316 µM
[8] = second compound 0.1 µM, first compound 0.1 µM
[9] = second compound 0.1 µM, first compound 0.316 µM
[10] = second compound 0.1 µM, first compound 1 µM
[11] = second compound 0.1 µM, first compound 3.16 µM
[12] = second compound 0.1 µM, first compound 10 µM
[13] = second compound 0.316 µM, first compound 0.0316 µM
[14] = second compound 0.316 µM, first compound 0.1 µM
[15] = second compound 0.316 µM, first compound 0.316 µM
[16] = second compound 0.316 µM, first compound 1 µM
[17] = second compound 0.316 µM, first compound 3.16 µM
[18] = second compound 0.316 µM, first compound 10 µM
[19] = second compound 1 µM, first compound 0.0316 µM
[20] = second compound 1 µM, first compound 0.1 µM
[21] = second compound 1 µM, first compound 0.316 µM
[22] = second compound 1 µM, first compound 1 µM
[23] = second compound 1 µM, first compound 3.16 µM
[24] = second compound 1 µM, first compound 10 µM
[25] = second compound 3.16 µM, first compound 0.0316 µM
[26] = second compound 3.16 µM, first compound 0.1 µM
[27] = second compound 3.16 µM, first compound 0.316 µM
[28] = second compound 3.16 µM, first compound 1 µM
[29] = second compound 3.16 µM, first compound 3.16 µM
[30] = second compound 3.16 µM, first compound 10 µM
[31] = second compound 10 µM, first compound 0.0316 µM
[32] = second compound 10 µM, first compound 0.1 µM
[33] = second compound 10 µM, first compound 0.316 µM
[34] = second compound 10 µM, first compound 1 µM
[35] = second compound 10 µM, first compound 3.16 µM
[36] = second compound 10 µM, first compound 10 µM

CC(=O)Nc1cccc(-n2c(=O)n(C3CC3)c(=O)c3c(Nc4ccc(I)cc4F)n(C)c(=O)c(C)c32)c1 + CNCc1ccccc1-c1csc(C(C)Nc2nc(C)nc3cc(OC)c(OC)cc23)c1
0.0121 µM: IC50 (second compound 0.1 µM)
0.0125 µM: IC50 (second compound 0.0316 µM)
0.0131 µM: IC50 (second compound 1 µM)
< 9.49e-05 µM: IC50 (second compound 10 µM)
inactive: viability, T/C (second compound 0.0316 µM, first compound 94.9 pM) 101% | viability, T/C (second compound 0.0316 µM, first compound 0.0003 µM) 130% | viability, T/C (second compound 0.0316 µM, first compound 0.000949 µM) 113% | viability, T/C (second compound 0.0316 µM, first compound 0.003 µM) 83.6% | viability, T/C (second compound 0.0316 µM, first compound 0.00949 µM) 66.7% | viability, T/C (second compound 0.1 µM, first compound 94.9 pM) 102% | viability, T/C (second compound 0.1 µM, first compound 0.0003 µM) 109% | viability, T/C (second compound 0.1 µM, first compound 0.000949 µM) 95.5% | viability, T/C (second compound 0.1 µM, first compound 0.003 µM) 75.7% | viability, T/C (second compound 0.1 µM, first compound 0.00949 µM) 67% | viability, T/C (second compound 0.1 µM, first compound 0.03 µM) 9.94% | viability, T/C (second compound 0.316 µM, first compound 94.9 pM) 93.6% | viability, T/C (second compound 0.316 µM, first compound 0.0003 µM) 99.6% | viability, T/C (second compound 0.316 µM, first compound 0.000949 µM) 101% | viability, T/C (second compound 0.316 µM, first compound 0.003 µM) 85.9% | viability, T/C (second compound 0.316 µM, first compound 0.00949 µM) 65.4% | viability, T/C (second compound 0.316 µM, first compound 0.03 µM) 13.4% | viability, T/C (second compound 1 µM, first compound 94.9 pM) 86.5% | viability, T/C (second compound 1 µM, first compound 0.0003 µM) 103% | viability, T/C (second compound 1 µM, first compound 0.000949 µM) 92.2% | viability, T/C (second compound 1 µM, first compound 0.003 µM) 84.6% | viability, T/C (second compound 1 µM, first compound 0.00949 µM) 67.2% | viability, T/C (second compound 3.16 µM, first compound 94.9 pM) 84.5% | viability, T/C (second compound 3.16 µM, first compound 0.0003 µM) 132% | viability, T/C (second compound 3.16 µM, first compound 0.000949 µM) 103% | viability, T/C (second compound 3.16 µM, first compound 0.003 µM) 103% | viability, T/C (second compound 3.16 µM, first compound 0.00949 µM) 70.2%
0.0132 µM: IC50 (second compound 0.316 µM) | IC50 (second compound 3.16 µM)
active: viability, T/C (second compound 0.0316 µM, first compound 0.03 µM) 9.37% | viability, T/C (second compound 1 µM, first compound 0.03 µM) 7.22% | viability, T/C (second compound 3.16 µM, first compound 0.03 µM) 0.49% | viability, T/C (second compound 10 µM, first compound 94.9 pM) 0.38% | viability, T/C (second compound 10 µM, first compound 0.0003 µM) 0.41% | viability, T/C (second compound 10 µM, first compound 0.000949 µM) 0.37% | viability, T/C (second compound 10 µM, first compound 0.003 µM) 0.33% | viability, T/C (second compound 10 µM, first compound 0.00949 µM) 0.36% | viability, T/C (second compound 10 µM, first compound 0.03 µM) 0.28%

COc1cc(Nc2ncc3c(n2)-c2ccc(Cl)cc2C(c2c(F)cccc2OC)=NC3)ccc1C(=O)O + CNCc1ccccc1-c1csc(C(C)Nc2nc(C)nc3cc(OC)c(OC)cc23)c1
active: viability, T/C [31] 0.4% | viability, T/C [32] 0.4% | viability, T/C [33] 0.37% | viability, T/C [34] 0.36% | viability, T/C [35] 0.41% | viability, T/C [36] 0.32%
> 10 µM: IC50 (second compound 0.1 µM) | IC50 (second compound 3.16 µM)
9.31 µM: IC50 (second compound 1 µM)
9.93 µM: IC50 (second compound 0.0316 µM)
8.79 µM: IC50 (second compound 0.316 µM)
inactive: viability, T/C [1] 92.9% | viability, T/C [2] 104% | viability, T/C [3] 101% | viability, T/C [4] 87.3% | viability, T/C [5] 84.6% | viability, T/C [6] 49.2% | viability, T/C [7] 93.2% | viability, T/C [8] 80.8% | viability, T/C [9] 98% | viability, T/C [10] 80.3% | viability, T/C [11] 84% | viability, T/C [12] 56.7% | viability, T/C [13] 71.1% | viability, T/C [14] 90.8% | viability, T/C [15] 79.5% | viability, T/C [16] 73.3% | viability, T/C [17] 83.7% | viability, T/C [18] 46.3% | viability, T/C [19] 75.5% | viability, T/C [20] 76.6% | viability, T/C [21] 97.3% | viability, T/C [22] 74.5% | viability, T/C [23] 92.4% | viability, T/C [24] 47.8% | viability, T/C [25] 101% | viability, T/C [26] 106% | viability, T/C [27] 97.8% | viability, T/C [28] 90.4% | viability, T/C [29] 100% | viability, T/C [30] 50.7%
< 0.0316 µM: IC50 (second compound 10 µM)

COc1cc2nccc(Oc3ccc(NC(=O)C4(C(=O)Nc5ccc(F)cc5)CC4)cc3)c2cc1OC + CNCc1ccccc1-c1csc(C(C)Nc2nc(C)nc3cc(OC)c(OC)cc23)c1
active: viability, T/C [24] 3.5% | viability, T/C [29] 0.31% | viability, T/C [30] 0.22% | viability, T/C [31] 0.36% | viability, T/C [32] 0.41% | viability, T/C [33] 0.99% | viability, T/C [34] 0.46% | viability, T/C [35] 0.43% | viability, T/C [36] 0.25%
6.1 µM: IC50 (second compound 0.316 µM)
< 0.0316 µM: IC50 (second compound 10 µM)
1.84 µM: IC50 (second compound 3.16 µM)
5.67 µM: IC50 (second compound 0.1 µM)
5.9 µM: IC50 (second compound 0.0316 µM)
4.98 µM: IC50 (second compound 1 µM)
inactive: viability, T/C [1] 87.7% | viability, T/C [2] 86.5% | viability, T/C [3] 78.2% | viability, T/C [4] 65.8% | viability, T/C [5] 84.2% | viability, T/C [6] 24.3% | viability, T/C [7] 67% | viability, T/C [8] 88.8% | viability, T/C [9] 87% | viability, T/C [10] 81% | viability, T/C [11] 78.2% | viability, T/C [12] 22.7% | viability, T/C [13] 86.6% | viability, T/C [14] 90.9% | viability, T/C [15] 72% | viability, T/C [16] 71.2% | viability, T/C [17] 81.4% | viability, T/C [18] 27.1% | viability, T/C [19] 69.6% | viability, T/C [20] 67.3% | viability, T/C [21] 66.6% | viability, T/C [22] 97.6% | viability, T/C [23] 99.7% | viability, T/C [25] 96.7% | viability, T/C [26] 104% | viability, T/C [27] 108% | viability, T/C [28] 115%
